Experimental data: patent US20110098278A1 (priority 2009, published 2011)
Values joined by “and” are separate entries in the source; they are usually repeats but may differ in a detail not shown here. Equal values may be shown once. “Also recorded” adds a separate entry of the source. Where a name gives a salt, the structure may show the parent alone.

Columns and labels:
Sprague Dawley rat = experiment: PICA behavior (kaolin consumption) in the Sprague Dawley rat as surrogate for emesis; type: in vivo
Procedure: This is a well established model for this purpose in the rat (Takeda N et al (1993) 45 817-21).
Once determined, a comparison was made of the effects of these doses on kaolin consumption over a 0-96 hour period in 24 h increments.
In detail groups of 10 male Sprague Dawley rats were habituated to kaolin for 3 days, then singly housed in grid-bottomed cages and habituated for a further 2 days prior to dosing. On the day of drug administration, the animals were food-deprived for 1 h prior to dosing. […] Access to a weighed quantity of food and kaolin was then restored. Food and kaolin was weighed 24, 48, 72 and 96 h after dosing.

[1] = system: human stomach circular smooth muscle; experiment: Ex vivo human stomach circular smooth muscle, electrical field stimulation; type: cell-based; details: human stomach strips under EFS; 100 nM to 100 μM
[2] = system: rabbit stomach circular smooth muscle; experiment: Ex vivo rabbit stomach circular smooth muscle, electrical field stimulation; type: cell-based; details: rabbit stomach strips under EFS; 100 nM to 100 μM
[3] = target: T1, human acetylcholine esterase (Homo sapiens, UniProt P22303); experiment: Human acetylcholine esterase inhibition (human recombinant, HEK-293 cells; Ellman photometry); type: biochemical
T1 construct: host or cells: HEK-293 cells

ferret = experiment: Emetic activity (retching and vomiting) in the ferret
rat = experiment: Comparative acute toxicity (rat behavior) of sc and po galantamine; type: in vivo; details: individual rats
[4] = Local galantamine concentration within the stomach after a typical dose; details: following a typical 24 mg dose
[5] = 40 mg/kg as base p.o., 2 hr. observation, individual ferrets
[6] = 20 mg (free base)/kg oral or similar molar dose
[7] = 20 mg/kg p.o., 2 hr. observation, individual ferrets, listed as Galantamine HBr, hydrobromide

T1 sequence (P22303 32-614): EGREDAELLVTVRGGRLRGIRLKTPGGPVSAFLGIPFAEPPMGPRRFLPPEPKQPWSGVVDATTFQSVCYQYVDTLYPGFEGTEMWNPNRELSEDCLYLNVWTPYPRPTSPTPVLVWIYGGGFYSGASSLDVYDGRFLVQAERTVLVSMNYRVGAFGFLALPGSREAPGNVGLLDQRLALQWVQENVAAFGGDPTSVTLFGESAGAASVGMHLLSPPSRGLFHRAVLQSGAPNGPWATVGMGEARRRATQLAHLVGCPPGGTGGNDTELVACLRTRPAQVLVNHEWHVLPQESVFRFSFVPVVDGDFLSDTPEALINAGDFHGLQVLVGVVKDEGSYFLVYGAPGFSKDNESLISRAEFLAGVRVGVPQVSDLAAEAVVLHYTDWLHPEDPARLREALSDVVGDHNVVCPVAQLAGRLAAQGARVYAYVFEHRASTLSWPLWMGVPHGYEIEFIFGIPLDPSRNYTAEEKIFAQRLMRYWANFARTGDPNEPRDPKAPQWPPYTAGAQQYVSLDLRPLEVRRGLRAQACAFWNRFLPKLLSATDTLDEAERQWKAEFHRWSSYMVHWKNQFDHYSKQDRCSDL

## COc1ccc2c3c1O[C@H]1C[C@@H](OC(=O)CCC(=O)N[C@H](C(=O)O)C(C)C)C=C[C@@]31CCN(C)C2.O=C(O)C(F)(F)F [Galantamine succinyl valine ester, galantamine-[succinyl-(S)-valine]ester trifluoroacetate]
Sprague Dawley rat; 11.75 mg galantamine free base content/kg po, 24 h
  Cumulative mean ± SD kaolin consumption: 0.14 ± 0.20 g
Sprague Dawley rat; 11.75 mg galantamine free base content/kg po, 48 h
  Cumulative mean ± SD kaolin consumption: 0.29 ± 0.24 g
Sprague Dawley rat; 11.75 mg galantamine free base content/kg po, 72 h
  Cumulative mean ± SD kaolin consumption: 0.48 ± 0.27 g
Sprague Dawley rat; 11.75 mg galantamine free base content/kg po, 96 h
  Cumulative mean ± SD kaolin consumption: 0.57 ± 0.40 g
Sprague Dawley rat; 23.5 mg galantamine free base content/kg po, 24 h
  Cumulative mean ± SD kaolin consumption: 0.31 ± 0.53 g
Sprague Dawley rat; 23.5 mg galantamine free base content/kg po, 48 h
  Cumulative mean ± SD kaolin consumption: 0.61 ± 0.69 g
Sprague Dawley rat; 23.5 mg galantamine free base content/kg po, 72 h
  Cumulative mean ± SD kaolin consumption: 0.95 ± 0.96 g
Sprague Dawley rat; 23.5 mg galantamine free base content/kg po, 96 h
  Cumulative mean ± SD kaolin consumption: 1.25 ± 1.31 g
Sprague Dawley rat; 47 mg galantamine free base content/kg po, 24 h
  Cumulative mean ± SD kaolin consumption: 0.15 ± 0.18 g
Sprague Dawley rat; 47 mg galantamine free base content/kg po, 48 h
  Cumulative mean ± SD kaolin consumption: 0.40 ± 0.18 g
Sprague Dawley rat; 47 mg galantamine free base content/kg po, 72 h
  Cumulative mean ± SD kaolin consumption: 0.63 ± 0.28 g
Sprague Dawley rat; 47 mg galantamine free base content/kg po, 96 h
  Cumulative mean ± SD kaolin consumption: 0.91 ± 0.45 g
Sprague Dawley rat; 47 mg galantamine free base content/kg po, 96 h, listed as GSVE
  Cumulative mean ± SD kaolin consumption: 0.91 ± 0.45 g
Sprague Dawley rat; oral, up to 47 mg (galantamine free base content)/kg
  kaolin consumption compared with vehicle alone (in words): little evidence for any increase in kaolin consumption
[1]
  stimulation of smooth muscle contractions (change in force production): complete absence of any such effect
[2]
  stimulation of smooth muscle contractions (change in force production): complete absence of any such effect
[3]
  IC50: > 100 µM
[3]; in contrast to galantamine
  inhibitory action toward human acetylcholine esterase (in words): significantly less inhibitory actions
ferret; [5]
  Time (min) to onset of: Retching: >120 min
  Time (min) to onset of: Vomiting: >120 min
  Total number of individual incidences of: Retching: 0
  Total number of individual incidences of: Vomiting: 0
ferret; 40 mg/kg as base p.o., Mean
  Time (min) to onset of: Retching: >120 min
  Time (min) to onset of: Vomiting: >120 min
  Total number of individual incidences of: Retching: 0
  Total number of individual incidences of: Vomiting: 0
ferret; oral 40 mg galantamine (free base equivs)/kg
  retching or vomiting (in words): no retching or vomiting at all was observed

## COc1ccc2c3c1O[C@H]1C[C@@H](O)C=C[C@@]31CCN(C)C2 [Galantamine, (4aS,6R,8aS)-4a,5,9,10,11,12-hexahydro-3-methoxy-11-methyl-6H-benzofuro[3a,3,2ef][2]benzazepin-6-ol hydrobromide]
Sprague Dawley rat; 3.5 mg/kg subcutaneous, over the whole 96 h period
  kaolin consumption compared with controls (in words): no increase at all in kaolin consumption
Sprague Dawley rat; 40 mg base/kg po, 24 h
  Cumulative mean ± SD kaolin consumption: 2.73 ± 1.4 g
Sprague Dawley rat; 40 mg base/kg po, 48 h
  Cumulative mean ± SD kaolin consumption: 3.36 ± 1.68 g
Sprague Dawley rat; 40 mg base/kg po, 72 h
  Cumulative mean ± SD kaolin consumption: 4.07 ± 1.88 g
Sprague Dawley rat; 40 mg base/kg po, 96 h, hydrobromide
  Cumulative mean ± SD kaolin consumption: 4.69 ± 2.43 g
Sprague Dawley rat; 40 mg base/kg po, 96 h, listed as galantamine, hydrobromide
  Cumulative mean ± SD kaolin consumption: 4.69 ± 2.43 g
Sprague Dawley rat; 40 mg/kg oral, over 96 h, hydrobromide
  kaolin consumption / PICA behavior (in words): significantly higher; also recorded: marked PICA behavior
Sprague Dawley rat; single oral dose 40 mg base/kg, Mean
  rat kaolin consumption (g) over 24 h post-dose: 1.79 g
Sprague Dawley rat; single oral dose 40 mg base/kg, individual rats 1-10, hydrobromide
  rat kaolin consumption (g) over 24 h post-dose: 1.06 g and 0.35 g and 0.02 g and 3.14 g and 4.47 g and 1.62 g and 0.16 g and 2.93 g and 3.11 g and 1.03 g
Sprague Dawley rat; single subcutaneous dose of 3.5 mg base/kg, Mean (rat 7 omitted as outlier)
  rat kaolin consumption (g) over 24 h post-dose: 0.25 g
Sprague Dawley rat; single subcutaneous dose of 3.5 mg base/kg, individual rats 1-10, hydrobromide
  rat kaolin consumption (g) over 24 h post-dose: 0.67 g and 0.36 g and 0.88 g and 0.08 g and *1.57 g and 0.00 g (3×) and 0.21 g and 0.05 g
[1]
  stimulation of smooth muscle contractions (change in force production): evidence of a dose response
rat; 3.5 mg/kg sc, 2 min post dose, hydrobromide
  Effect on rat behavior: Rat 1: purposeless chewing, mouth; also recorded: Rat 3: purposeless chewing, mouth
rat; 3.5 mg/kg sc, 5 min post-dose, hydrobromide
  Effect on rat behavior: Rat 1: purposeless chewing, mouth movements,; also recorded: Rat 3: As per 2 min
rat; 3.5 mg/kg sc, 10 min post-dose, hydrobromide
  Effect on rat behavior: Rat 1: Tremors, flattened rostral body; also recorded: Rat 3: purposeless chewing, mouth
rat; 3.5 mg/kg sc, 20 min post-dose, hydrobromide
  Effect on rat behavior: Rat 1: Quiescent, flattened body posture,; also recorded: Rat 3: Some ambulation restored symptoms
rat; 3.5 mg/kg sc, 30 min post-dose, hydrobromide
  Effect on rat behavior: Rat 1: Quiescent, flattened body posture,; also recorded: Rat 3: Some ambulation restored
rat; 3.5 mg/kg sc, 45 min post-dose
  Effect on rat behavior: Rat 1: food consumption and more
rat; 3.5 mg/kg sc, 1 h, hydrobromide
  Effect on rat behavior: Rat 1: Normal; also recorded: Rat 3: Normal
rat; 40 mg/kg po, 10 min post-dose, hydrobromide
  Effect on rat behavior: Rat 6: Quiescent, purposeless; also recorded: Rat 7: Quiescent, purposeless chewing,
rat; 40 mg/kg po, 20 min post-dose, hydrobromide
  Effect on rat behavior: Rate 6 as per 10 min + arching; also recorded: Rat 7: grooming + purposeless
rat; 40 mg/kg po, 30 min post-dose
  Effect on rat behavior: Rat 6: quiescent, purposeless chewing,
rat; 40 mg/kg po, 45 min post-dose, hydrobromide
  Effect on rat behavior: Rat 6: flattened body posture, chewing,; also recorded: Rat 7: grooming, sawdust consumption
rat; 40 mg/kg po, 1 h, hydrobromide
  Effect on rat behavior: Rat 6: flattened body posture, tremor; also recorded: Rat 7: Grooming, sawdust
rat; 40 mg/kg po, 1.5 h, hydrobromide
  Effect on rat behavior: Rat 7: quiet, falttened posture
rat; 40 mg/kg po, 2 h, hydrobromide
  Effect on rat behavior: Rat 6: much improved; also recorded: Rat 7: much improved
rat; 40 mg/kg po, 3 h, hydrobromide
  Effect on rat behavior: Rat 6: normal; also recorded: Rat 7: normal
[2]
  stimulation of smooth muscle contractions (change in force production): evidence of a dose response
[4]
  Local concentrations within the stomach: 200 to 400 µM
ferret; [6]
  animals dosed that retched: 55%
  animals dosed that vomited: 40%
ferret; 20 mg/kg p.o. (galantamine free base content), 2 hr. observation, individual ferrets, listed as Galantamine HBr, hydrobromide
  Total number of individual incidences of: Retching: 21 and 29 and 18 and 0 (9×) and 31 and 3 (2×) and 6 and 2 and 5 and 13 and 22
ferret; [7]
  Time (min) to onset of: Retching: 33 min and 3 min and 5 min (3×) and >120 min (8×) and 41 min and 11 min and 10 min and 7 min (2×) and 6 min (2×)
  Time (min) to onset of: Vomiting: 33 min and 75 min and 5 min (2×) and >120 min (11×) and 37 min and 10 min and 13 min and 6 min and 41 min
  Total number of individual incidences of: Vomiting: 4 (2×) and 1 (6×) and 0 (11×) and 2
